Consider one substance from US4550186A, “Binuclear copper (II) carboxylates formed from amine-carboxyboranes” (Duke University, priority 1983, dated 1985).

Test [1] concerns Mitochondrial Citrate Exchange. Description: In vitro liver enzyme study: mitochondrial citrate exchange. Type of test: biochemical, mouse. The conditions noted are these: in vitro CF1 liver, 10 min. As to the method: (§1) In vitro enzymatic studies were determined using 10% homogenates of CF1 male mouse liver with 50-200 μM of test drugs. In vivo enzymatic studies were determined using 10% homogenates of liver from CF1 male mice obtained after administering the agents for 16 days at a dose ranging from 2.5-20 mg/kg/day intraperitoneally. The liver homogenates for both in vitro and in vivo studies were prepared in 0.25M sucrose and 0.001M (ethylenedinitrilo)tetraacetic acid. Acetyl coenzyme A synthetase and adenosine triphosphate dependent citrate lyase activities were determined spectrophotometrically at 540 nm as the hydroxylamate of acetyl coenzyme A formed after 30 min at 37° C. Mitochondrial citrate exchange was determined by the procedure of Robinson et al [Eur. J. Biochem., 216, 63 (1970)] using ^14 C-sodium bicarbonate (41 mCi/mmol) incorporated into mitochondrial ^14 C-citrate after isolating rat mitochondria (9000 g×10 min) from the homogenates. The exchanges of the ^14 C-citrate were determined after incubating the mitochondrial fraction which was loaded with labeled citrate and test drugs for 10 min. Then the radioactivity was measured in the mitochondrial and supernantant fractions in scintillation fluid and expressed as a percentage. Cholesterol side chain oxidation was determined by the method of Kritchevsky and Tepper [Artherosclerosis, 18, 93 (1973)] using (26-^14 C) cholesterol (50 mCi/mmol) and mitochondria isolated from rat liver homogenates. […] Fatty acid synthetase activity was determined by the method of Brady et al [J. Biol. Chem., 235, 3093 (1960)] using [2-^14 C] malonyl-coenzyme A (37.5 mCi/mmol) which was incorporated into newly synthesized fatty acids that were extracted with ether and counted. Acyl transferase activity was determined with glycerol-3phosphate [L-2-^3 H(N)] […] HCl and counted. Phosphatidate phosphohydrolase activity was measured as the inorganic phosphate released after 30 min from phosphatidic acid by the method of Mavis et al [J. Lipid Res., 19, 467 (1978)]. […]

Test [2] relates to sn-Glycerol 3-phosphate Acyl Transferase. Description: In vivo liver enzyme study: sn-glycerol 3-phosphate acyl transferase. On the set-up: species or system mouse. To be noted: CF1 liver after 16 days i.p. As for the experimental part:
as §1

The subject of test [3] is formate incorporation into purine. The experiment in a line: In vitro formate incorporation into purine (supernatant fraction). It counts as biochemical, mouse. To be noted: read-out: ID50, formate incorporation into purine. As for the experimental part:
CF1 male mice (~30 g) were implanted with 2×10^6 Ehrlich ascites tumor cells, intraperitoneally on Day 0. Compound I was suspended by homogenation in 0.05% polysorbate.80-water and administered intraperitoneally at 10 and 20 mg/kg for 9 days to determine its effectiveness for inhibition of tumor growth. Mice were sacrificed on Day 10, and the ascites fluid was collected from the peritoneal cavity. The volume and ascrit (packed cell volume) were determined for each animal and the percent inhibition of tumor growth was calculated. For the metabolic studies, mice were treated on Days 8 and 9 with 10 mg/kg of Compound I, intraperitoneally. […]
Carbamyl phosphate synthetase activity was determined using the reaction medium of Kalman et al [Am. […] Citrulline formed from ornithine was measured at 490 nm by the method of Archibald [J. Biol. Chem., 156, 121 (1944)]. […] The ^14 CO2 generated in 15 min was trapped in 1M KOH and counted. Thymidylate synthetase activity was determined using a post-mitochondrial supernatant (9000 g×10 min) and 5 μCi of 5-^3 H-deoxyuridine monophosphate (14 Ci/mmol) according to the method of Kampf et al [ J. Med. Chem., 19, 903 (1976)]. ^14 C-Formate incorporation into purines was determined by the method of Spassova et al [Biochem. Pharmacol., 25, 923 (1976)] using 0.5 μCi of ^14 C-formic acid (52.0 mCi/mmol). […] The Rf value for xanthine monophosphate was scraped and counted. […]

With “{Cu[(CH3)3 N.BH2 CO2 ]2.(CH3)3 N.BH2 COOH} [Compound I]”, the “Mitochondrial Citrate Exchange” value in test [1] (50 μM) is on record as 105 ± 6 Percent Control; in test [1] (100 μM), 104 ± 6 Percent Control; in test [1] (200 μM), 103 ± 7 Percent Control. Besides, the entries for the “sn-Glycerol 3-phosphate Acyl Transferase” value in test [2] (2.5 mg/kg), in test [2] (5.0 mg/kg) and in test [2] (10 mg/kg) were 95 ± 6% of control, 95 ± 7% of control and 119 ± 7% of control, respectively. Also, the IC50 in test [3] is 1710 µM.
